Test results reported in US20200148646A1, “6-S[…] 7-S[…] ANALOGS AND THE USE THEREOF” (Purdue Pharma, L.P., priority 2013, published 2020).

Legend:
[1] = molecular target: T1, μ-opioid receptor (Homo sapiens, UniProt P35372); assay: μ-opioid receptor radioligand ([3H]-diprenorphine) dose-displacement binding assay, HEK-293 or CHO cells
Method: Radioligand dose-displacement binding assays for μ-opioid receptors used 0.3 nM [^3H]-diprenorphine (Perkin Elmer, Shelton, Conn.), with […] membrane protein/well in a final volume of 500 μl binding buffer (10 mM MgCl2, 1 mM EDTA, 5% DMSO, 50 mM HEPES, pH 7.4). Reactions were carried out in the absence or presence of increasing concentrations of unlabeled naloxone. All reactions were conducted in 96-deep well polypropylene plates for 2 hr at room temperature. Binding reactions were terminated by rapid filtration onto 96-well Unifilter GF/C filter plates (Perkin Elmer, Shelton, Conn.), presoaked in 0.5% polyethylenimine using a 96-well tissue harvester (Perkin Elmer, Shelton, Conn.) followed by performing three filtration washes with 500 μl of ice-cold binding buffer. Filter plates were subsequently dried at 50° C. for 2-3 hours. BetaScint scintillation cocktail (Perkin Elmer, Shelton, Conn.) was added (50 l/well), and plates were counted using a Packard Top-Count for 1 min/well. The data were analyzed using the one-site competition curve fitting functions in GraphPad PRISM™ v. 3.0 or higher (San Diego, Calif.), or an in-house function for one-site competition curve-fitting.
(§1) In TABLE 1, binding affinity of certain Compounds of the Invention to the μ-, and κ-opioid receptors in HEK-293 or CHO cells was determined as described above.

[2] = molecular target: T1, μ-opioid receptor; assay: μ-opioid receptor [35S]GTPγS functional assay, HEK-293 or CHO cells; type: biochemical; settings: for Emax: HEK-293 or CHO cells, relative to DAMGO
Method: [^35S]GTPγS functional assays were conducted using freshly thawed μ-receptor membranes prepared in-house from a cell line expressing recombinant opioid receptor in a HEK-293, CHO or U-2 OS cell background, or purchased from a commercial source (Perkin Elmer, Shelton, Conn.; or DiscovRx, Fremont, Calif.). Assay reactions were prepared by sequentially adding the following reagents to binding buffer (100 mM NaCl, 10 mM MgCl2, 20 mM HEPES, pH 7.4) on ice (final concentrations indicated): membrane protein (0.026 mg/mL), saponin ([…]), GDP ([…]) and [^35S]GTPγS (0.20 nM; Perkin Elmer, Shelton, Conn.). The prepared membrane solution (190 l/well) was transferred to 96-shallow well polypropylene plates containing 10 μl of 20× concentrated stock solutions of the agonist [D-Ala^2, N-methyl-Phe^4 Gly-ol^5]-enkephalin (DAMGO) prepared in dimethyl sulfoxide (DMSO). Plates were incubated for 30 min at about 25° C. with shaking. Reactions were terminated by rapid filtration onto 96-well Unifilter GF/B filter plates (Perkin Elmer, Shelton, Conn.) using a 96-well tissue harvester (Perkin Elmer, Shelton, Conn.) followed by three filtration washes with 200 μl of ice-cold wash buffer (10 mM NaH2PO4, 10 mM Na2HPO4, pH 7.4). Filter plates were subsequently dried at 50° C. for 2-3 hr. BetaScint scintillation cocktail (Perkin Elmer, Shelton, Conn.) was added (50 μl/well) and plates were counted using a Packard Top-Count for 1 min/well. Data were analyzed using the sigmoidal dose-response curve fitting functions in GraphPad PRISM v. 3.0, or an in-house function for non-linear, sigmoidal dose-response curve-fitting.
μ GTP EC50 is the concentration of a compound providing 50% of the maximal response for the compound at a μ-opioid receptor.
μ GTP Emax (%) is the maximal effect elicited by a compound relative to the effect elicited by DAMGO, a standard agonist. Generally, the μ GTP Emax (%) value measures the efficacy of a compound to treat or prevent pain or other Conditions.
In TABLE 2, activity response of certain Compounds of the Invention at the μ- and κ-opioid receptors using HEK-293 or CHO cells was determined as described above for functional assays.

[3] = molecular target: T1, μ-opioid receptor; assay: μ-opioid receptor [35S]GTPγS functional assay, U-2 OS cells; type: biochemical; design: host or cells: U-2 OS cells; settings: for Emax: U2-OS cells, relative to DAMGO
Method in brief: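 U-2 OS membranes expressing recombinant human μ-receptor (0.026 mg/mL) were incubated with compound, […], saponin and [35S]GTPγS 0.20 nM in HEPES/NaCl/MgCl2 buffer pH 7.4 for 30 min at about 25° C. Filter-bound radioactivity gave sigmoidal fits for EC50; Emax is relative to DAMGO.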

[4] = molecular target: T2, human κ opioid receptor (Homo sapiens, UniProt P41145); assay: κ-opioid receptor radioligand ([3H]-U69,593) dose-displacement binding assay, HEK-293 or CHO cells; design: expressed in transfected cells; host or cells: HEK-293 cells (in-house prep)
T2 sequence (P41145 whole entry): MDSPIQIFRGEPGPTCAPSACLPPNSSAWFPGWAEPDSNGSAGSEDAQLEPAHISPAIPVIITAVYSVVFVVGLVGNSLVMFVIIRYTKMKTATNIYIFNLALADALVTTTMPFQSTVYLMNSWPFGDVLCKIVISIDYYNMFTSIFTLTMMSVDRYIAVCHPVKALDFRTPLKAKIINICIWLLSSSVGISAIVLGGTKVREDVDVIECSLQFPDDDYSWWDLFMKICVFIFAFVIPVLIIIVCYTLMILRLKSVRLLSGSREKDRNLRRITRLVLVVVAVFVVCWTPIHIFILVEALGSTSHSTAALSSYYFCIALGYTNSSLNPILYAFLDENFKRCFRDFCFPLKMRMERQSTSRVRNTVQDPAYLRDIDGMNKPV
Method: Membranes from recombinant HEK-293 cells expressing the human K opioid receptor (cloned in house) were prepared by lysing cells in ice cold hypotonic buffer (2.5 mM MgCl2, 50 mM HEPES, pH 7.4) (10 mL/10 cm dish) followed by homogenization with a tissue grinder/Teflon pestle. Membranes were collected by centrifugation at 30,000×g for 15 min at 4° C. and pellets were resuspended in hypotonic buffer to a final concentration of 1-3 mg/mL. Protein concentrations were determined using the BioRad protein assay reagent with bovine serum albumen as standard. Aliquots of κ receptor membranes were stored at −80° C.
Radioligand dose displacement assays used 0.4 nM [^3H]-U69,593 (GE Healthcare, Piscataway, N.J.; 40 Ci/mmole) with 15 μg membrane protein (recombinant K opioid receptor expressed in HEK 293 cells; in-house prep) in a final volume of 200 μl binding buffer (5% DMSO, 50 mM Trizma base, pH 7.4). Non-specific binding was determined in the presence of 10 μM unlabeled naloxone or U69,593. All reactions were performed in 96-well polypropylene plates for 1 hr at a temperature of about 25° C. Binding reactions were terminated by rapid filtration onto 96-well Unifilter GF/C filter plates (Perkin Elmer, Shelton, Conn.) presoaked in 0.5% polyethylenimine (Sigma). Harvesting was performed using a 96-well tissue harvester (Perkin Elmer, Shelton, Conn.) followed by five filtration washes with 200 μl ice-cold binding buffer. Filter plates were subsequently dried at 50° C. for 1-2 hours. Fifty μl/well scintillation cocktail (Perkin Elmer, Shelton, Conn.) was added and plates were counted in a Packard Top-Count for 1 min/well.
as §1

[5] = molecular target: T2, human κ opioid receptor; assay: κ-opioid receptor [35S]GTPγS functional assay, U-2 OS cells; type: biochemical; design: expressed in transfected cells; host or cells: U-2 OS cells (in-house membranes); settings: for Emax: U2-OS cells, relative to U69,593
Method in brief: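 Membranes from U-2 OS cells expressing human κ receptor (0.026 μg/μl protein) were incubated with agonist, 10 μg/mL saponin, 3 μM GDP and 0.20 nM [35S]GTPγS in pH 7.4 HEPES buffer for 30 min at about 25 °C. Bound radioactivity was measured after filtration. EC50 was taken at half-maximal response; Emax is relative to U69,593.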

T1 sequence (P35372 whole entry, species assumed): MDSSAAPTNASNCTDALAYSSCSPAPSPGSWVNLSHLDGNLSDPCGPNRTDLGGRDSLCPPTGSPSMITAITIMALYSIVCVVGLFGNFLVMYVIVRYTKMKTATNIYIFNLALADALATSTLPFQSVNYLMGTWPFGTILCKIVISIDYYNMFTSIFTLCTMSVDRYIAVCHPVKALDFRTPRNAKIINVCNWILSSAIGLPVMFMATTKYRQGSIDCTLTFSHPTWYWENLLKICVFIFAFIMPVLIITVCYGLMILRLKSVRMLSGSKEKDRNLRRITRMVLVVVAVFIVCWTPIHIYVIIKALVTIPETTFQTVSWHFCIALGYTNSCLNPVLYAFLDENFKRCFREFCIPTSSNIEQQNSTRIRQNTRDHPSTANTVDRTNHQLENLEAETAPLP

Row | Structure (SMILES) | Ki [1] [nM] | EC50 [2] [nM] | Emax [2] [%] | EC50 [3] [nM] | Emax [3] [%] | Ki [4] [nM] | EC50 [5] [nM] | Emax [5] [%]
1 | N=C(N)NCC(=O)N[C@@H]1CC[C@@]2(O)[C@H]3Cc4ccc(O)cc4[C@@]2(CCN3CC2CC2)C1 [Compound 20, N-((4bR,6R,8aS,9R)-11-(cyclopropylmethyl)-3,8a-dihydroxy-6,7,8,8a,9,10-hexahydro-5H-9,4b-(epiminoethano)phenanthren-6-yl)-2-guanidinoacetamide] | 449 ± 53.5 | > 20000 | 7.33 ± 0.88 | 394 ± 57.8 | 62.7 ± 4.26 | 3.23 ± 0.7 | 62.3 ± 2.37 | 111 ± 2.4
2 | N=C(N)NCCCCN[C@@H]1CC[C@@]2(O)[C@H]3Cc4ccc(O)cc4[C@@]2(CCN3CC2CC2)C1 [Compound 16, 1-(4-(((4bR,6R,8aS,9R)-11-(cyclopropylmethyl)-3,8a-dihydroxy-6,7,8,8a,9,10-hexahydro-5H-9,4b-(epiminoethano)phenanthren-6-yl)amino)butyl)guanidine] | 70.5 ± 13.8 | 811 ± 442 | 9 ± 0.58 | 53.7 ± 11.5 | 78 ± 3.61 | 0.48 ± 0.055 | 15 ± 1.15 | 105 ± 2.89
3 | N=C(N)NCCCC(=O)N[C@@H]1CC[C@@]2(O)[C@H]3Cc4ccc(O)cc4[C@@]2(CCN3CC2CC2)C1 [Compound 22, N-((4bR,6R,8aS,9R)-11-(cyclopropylmethyl)-3,8a-dihydroxy-6,7,8,8a,9,10-hexahydro-5H-9,4b-(epiminoethano)phenanthren-6-yl)-4-guanidinobutanamide] | 251 ± 29.4 | > 20000 | 5 ± 1.53 | 247 ± 25.5 | 60 ± 5.51 | 1.85 ± 0.22 | 27.1 ± 4.18 | 107 ± 2.33
4 | N=C(N)NCCN[C@@H]1CC[C@@]2(O)[C@H]3Cc4ccc(O)cc4[C@@]2(CCN3CC2CC2)C1 [Compound 12, 1-(2-(((4bR,6R,8aS,9R)-11-(cyclopropylmethyl)-3,8a-dihydroxy-6,7,8,8a,9,10-hexahydro-5H-9,4b-(epiminoethano)phenanthren-6-yl)amino)ethyl)guanidine] | 53.2 ± 8.9 | > 20000 | 5.33 ± 0.88 | 32.7 ± 2.82 | 64.7 ± 5.17 | 0.29 ± 0.13 | 5.06 ± 0.29 | 105 ± 1.76
5 | COc1ccc2c(c1)[C@]13CCN(CC4CC4)[C@H](C2)[C@]1(O)C[C@H](C)[C@H](O)C3 [Compound 3, (4bR,6R,7S,8aS,9R)-11-(cyclopropylmethyl)-3-methoxy-7-methyl-5,6,7,8,9,10-hexahydro-8aH-9,4b-(epiminoethano)phenanthrene-6,8a-diol] | 6140 ± 963 | 2750 | 58.7 ± 4.18 | – | – | 3010 ± 339 | – | –
6 | N=C(N)NCCCN[C@@H]1CC[C@@]2(O)[C@H]3Cc4ccc(O)cc4[C@@]2(CCN3CC2CC2)C1 [Compound 15, 1-(3-(((4bR,6R,8aS,9R)-11-(cyclopropylmethyl)-3,8a-dihydroxy-6,7,8,8a,9,10-hexahydro-5H-9,4b-(epiminoethano)phenanthren-6-yl)amino)propyl)guanidine] | 54.1 ± 10.1 | 1110 ± 447 | 11.3 ± 0.33 | 41.5 ± 8.55 | 76.3 ± 3.38 | 0.53 ± 0.13 | 12.8 ± 1.3 | 108 ± 2.65
7 | COc1ccc2c(c1)[C@]13CCN(CC4CC4)[C@H](C2)[C@]1(O)C[C@H](CO)[C@H](O)C3 [Compound 7, (4bR,6R,7R,8aS,9R)-11-(cyclopropylmethyl)-7-(hydroxymethyl)-3-methoxy-5,6,7,8,9,10-hexahydro-8aH-9,4b-(epiminoethano)phenanthrene-6,8a-diol] | 10800 ± 843 | 4910 | 53.7 ± 4.37 | – | – | 7300 ± 1640 | – | –
8 | NCCCN[C@@H]1CC[C@@]2(O)[C@H]3Cc4ccc(O)cc4[C@@]2(CCN3CC2CC2)C1 [Compound 13, (4bR,6R,8aS,9R)-6-((3-aminopropyl)amino)-11-(cyclopropylmethyl)-5,6,7,8,9,10-hexahydro-8aH-9,4b-(epiminoethano)phenanthrene-3,8a-diol] | 80 ± 27.1 | – | – | 38.9 ± 4.9 | 66.3 ± 5.78 | 0.51 ± 0.073 | 2.13 ± 0.41 | 117 ± 1.86
9 | N=C(N)Nc1ccc(N[C@@H]2CC[C@@]3(O)[C@H]4Cc5ccc(O)cc5[C@@]3(CCN4CC3CC3)C2)cc1 [Compound 24, 1-(4-(((4bR,6R,8aS,9R)-11-(cyclopropylmethyl)-3,8a-dihydroxy-6,7,8,8a,9,10-hexahydro-5H-9,4b-(epiminoethano)phenanthren-6-yl)amino)phenyl)guanidine] | 8.42 ± 2.88 | > 20000 | 4.33 ± 1.45 | 8.14 ± 0.94 | 55.3 ± 2.91 | 0.24 ± 0.021 | 2.91 ± 0.18 | 104 ± 4.04
10 | CN(C)[C@H]1CC[C@@]2(O)[C@H]3Cc4ccc(O)cc4[C@@]2(CCN3CC2CC2)C1 [Compound 10, (4bR,6S,8aS,9R)-11-(cyclopropylmethyl)-6-(dimethylamino)-5,6,7,8,9,10-hexahydro-8aH-9,4b-(epiminoethano)phenanthrene-3,8a-diol] | 3.84 ± 1.36 | > 20000 | 2.5 | 4.69 ± 0.74 | 33 ± 1.15 | 0.057 ± 0.01 | 0.79 ± 0.07 | 101 ± 6.23
11 | N=C(N)NCCC(=O)N[C@@H]1CC[C@@]2(O)[C@H]3Cc4ccc(O)cc4[C@@]2(CCN3CC2CC2)C1 [Compound 21, N-((4bR,6R,8aS,9R)-11-(cyclopropylmethyl)-3,8a-dihydroxy-6,7,8,8a,9,10-hexahydro-5H-9,4b-(epiminoethano)phenanthren-6-yl)-3-guanidinopropanamide] | 1010 ± 221 | – | – | – | – | 4.61 ± 1.05 | 120 ± 2.94 | 105.3 ± 0.88
